For experiment [1], the system named is Hodgkin lymphoma cells L540. Nature of the experiment: In vitro killing of L540 cells, single drugs and combinations. The class given is cell-based.
Protocol: (§1) After the sample was added, it was cultured in 5% CO2 at 37° C. for 77±2 hours, stained with AlamarBlue fluorescent dye, cultured for 19±2 hours, and read at 530 nm (excitation)/590 nm (emission). The IC50 value of the semi-inhibitory concentration of each sample was calculated by fitting with the computer's four-parameter equation software.
(§2) Cell proliferation method was used to investigate the killing effect of drugs on cells.
Experiment [2] deals with Karpas299 cells. Nature of the experiment: In vitro killing of Karpas299 cells (AlamarBlue), single drugs and combinations. The experiment is classed as cell-based, human. For orientation: Alamar Blue is a resazurin reagent that responds to reducing activity.
Protocol: as §1, §2
The subject of experiment [3] is Hodgkin lymphoma cells L428. Description: In vitro killing of L428 cells (AlamarBlue), single drugs, MDR1 inhibitor, combinations.
Protocol: Cell proliferation method was used to investigate the killing effect of drugs on cells. L428 cells were inoculated in 96-well cell culture plates at 5×10^4 cell/mL, i.e., 5000 cells per well. Doxorubicin was diluted to 259.5 ng/mL, 129.8 ng/mL, 64.88 ng/mL, 32.44 ng/mL, 21.63 ng/mL, 14.42 ng/mL, 9.611 ng/mL, 3.844 ng/mL, 1.538 ng/mL using cell culture medium, for a total of 9 concentrations. Serial dilutions of Doxorubicin were added to the culture plates of the seeded plates and incubated for 77±2 hours at 37° C. in a 5% CO2 incubator. The samples were stained with AlamarBlue fluorescent dye and incubated at 37° C. in a 5% CO2 incubator for 19±2 hours. Readings were performed at wavelength of 50 nm (excitation)/590 nm (emission). The IC50 value of Doxorubicin was calculated by fitting it with four-parameter equation.
Calcusyn, the software for calculating the combination index, was chosen to calculate the CI of the combination index at different killing levels,
Experiment [4] has as its system Hodgkin lymphoma cells L428. To be noted: known in the art; cited from earlier work.
For experiment [5], the target named is MDR1 (multidrug resistance gene 1 product, CD243, ABC B1) on the cell surface (UniProt P08183). Nature of the experiment: flow cytometry, PE-labelled UIC2 on Karpas 299 cells (cells other than L428 did not express MDR1); PBS as negative control. In general terms: In flow cytometry, cells or beads pass a laser one at a time.
Experiment [6] has the same target. Nature of the experiment: flow cytometry, PE-labelled UIC2 on L540 cells (cells other than L428 did not express MDR1); PBS as negative control.
Experiment [7] has the same target. Nature of the experiment: flow cytometry, PE-labelled UIC2 on L428 cells (text: L428 specifically expressed MDR1 on the surface); PBS as negative control.
Experiment [8] has the same target. Nature of the experiment: flow cytometry, PE-labelled UIC2 on HH cells (cells other than L428 did not express MDR1); PBS as negative control.
The mark [9] stands for this setting: Homo sapiens, L-428, read-out: IC50 of single drug.
The mark [10] stands for this setting: Homo sapiens, L-540, L540, Tables 8 and 13, read-out: IC50 of single drug.
The mark [11] stands for this setting: Homo sapiens, KARPAS-299, Karpas299 cells, Table 13, read-out: IC50 of single drug.

The values that follow come from US20220226334A1, “ANTIBODY CONJUGATE AND APPLICATION OF PHARMACEUTICAL COMPOSITION THEREOF” (SHANGHAI FUDAN-ZHANGJIANG BIO-PHARMACEUTICAL CO., LTD., priority 2019, published 2022).

Read-outs that look alike come from different tables or passages of the source. Where a SMILES comes first, the peptide text is derived from it. [ ]: non-standard residue; d: D form. The star is where a group is joined. Dolaproine = CO[C@@H]([C@@H]1CCCN1)[C@@H](C)C(=O)O; Dil = CC[C@H](C)[C@H](NC)[C@@H](CC(=O)O)OC; X1 = C[C@@H](N*)[C@@H](O)c1ccccc1; NMeV = CN[C@H](C(=O)O)C(C)C

In general, IC50 refers to the point on the concentration scale where inhibition reaches its midpoint. Take `O=P1(N(CCCl)CCCl)NCCCO1` (stereo not shown) [Cyclophosphamide]: the IC50 in experiment [1] (Homo sapiens, L-540, read-out: IC50 of single drug) is 121 µM; in experiment [2] (Homo sapiens, KARPAS-299, read-out: IC50 of single drug), 385 µM; in experiment [3] (setting [9]), 590 µM.
Turning to `CN(C)/N=N/c1[nH]cnc1C(N)=O` [Dacarbazine], the IC50 was found to be 31.3 µM in experiment [1] (setting [10]) and 178 µM in experiment [3] (setting [9]).
As for `COc1cccc2c1C(=O)c1c(O)c3c(c(O)c1C2=O)C[C@@](O)(C(=O)CO)C[C@@H]3O[C@H]1C[C@H](N)[C@H](O)[C@H](C)O1` [Doxorubicin], the 50% inhibitory concentration (IC50) in experiment [1] (setting [10]) was found to be 0.0585 µM; in experiment [2] (setting [11]), 0.0405 µM; in experiment [3] (setting [9]), 0.0278 µM.
On to `COc1cc([C@@H]2c3cc4c(cc3[C@@H](O[C@@H]3O[C@@H]5CO[C@@H](C)O[C@H]5[C@H](O)[C@H]3O)[C@H]3COC(=O)[C@H]23)OCO4)cc(OC)c1O` [Etoposide], for which the IC50 was found to be 30.1 µM in experiment [1] (setting [10]), 64.1 µM in experiment [2] (setting [11]) and 54.2 µM in experiment [3] (setting [9]).
For the compound `CC[C@H](C)[C@@H]([C@@H](CC(=O)N1CCC[C@H]1[C@H](OC)[C@@H](C)C(=O)N[C@H](C)[C@@H](O)c1ccccc1)OC)N(C)C(=O)[C@@H](NC(=O)[C@@H](NC)C(C)C)C(C)C` [MMAE] (H-[NMeV]V[Dil][Dolaproine]-X1), the “Sensitivity of L428 to the small molecule (in words)” value in experiment [4] is “sensitive”.
With `C[C@]12C=CC(=O)C=C1CC[C@@H]1[C@@H]2C(=O)C[C@@]2(C)[C@H]1CC[C@]2(O)C(=O)CO` [Prednisone], the results for the IC50 in experiment [1] (setting [10]), in experiment [2] (setting [11]) and in experiment [3] (setting [9]) were 98.5 µM, 187 µM and 113 µM, respectively.
For `CNNCc1ccc(C(=O)NC(C)C)cc1` [Procarbazine] the same measures were 24.7 µM, 26.9 µM and 500 µM.
For the compound `CC[C@]1(O)C[C@H]2CN(CCc3c([nH]c4ccccc34)[C@@](C(=O)OC)(c3cc4c(cc3OC)N(C=O)[C@H]3[C@@](O)(C(=O)OC)[C@H](OC(C)=O)[C@]5(CC)C=CCN6CC[C@]43[C@@H]65)C2)C1` [Vincristine], the concentration for half-maximal inhibition (IC50) in experiment [1] (setting [10]) was 0.000772 µM; in experiment [2] (setting [11]) it was 0.0185 µM; in experiment [3] (setting [9]), 0.0281 µM.
On to Bleomycin, for which the IC50 in experiment [1] (read-out: IC50 of single drug) amounted to 3.2 µM; in experiment [2] (read-out: IC50 of single drug), 1.68 µM; in experiment [3] (read-out: IC50 of single drug), 2.04 µM.
As to “CD243 (ABC B1) monoclonal antibody (UIC 2), PE (ThermoFisher)”, the MDR1 binding ratio worked out at 1.2 in experiment [5], 1.2 in experiment [6], 16.1 in experiment [7] and 2.6 in experiment [8].
